Laboratory results as given in ChEMBL document CHEMBL1208728, “Design, synthesis, and structure-activity relationships of pyrazole derivatives as potential FabH inhibitors” (Bioorg Med Chem Lett, 2010).
Values after ≈ are worked out from the molar mass of the structure shown.

Key:
Assay type in all cases: functional
[1] = test system: Bacillus subtilis; assay: Antimicrobial activity against Bacillus subtilis ATCC 6633 by MTT assay
[2] = test system: Enterococcus faecalis; assay: Antimicrobial activity against Streptococcus faecalis ATCC 9790 by MTT assay
[3] = test system: Staphylococcus aureus; assay: Antimicrobial activity against Staphylococcus aureus ATCC 6538 by MTT assay
[4] = test system: Escherichia coli; assay: Antimicrobial activity against Escherichia coli ATCC 35218 by MTT assay
[5] = test system: Enterobacter cloacae; assay: Antimicrobial activity against Enterobacter cloacae ATCC 13047 by MTT assay
[6] = test system: Pseudomonas aeruginosa; assay: Antimicrobial activity against Pseudomonas aeruginosa ATCC 13525 by MTT assay

MIC [1] [µg/mL]	MIC [2] [µg/mL]	MIC [3] [µg/mL]	MIC [4] [µg/mL]	MIC [5] [µg/mL]	MIC [6] [µg/mL]	Compound
6.25 (≈ 18 µM)	12.5 (≈ 36 µM)	> 50	> 50	25 (≈ 72 µM)	25 (≈ 72 µM)	CC(=O)N1N=C(c2ccc(Cl)c(Cl)c2)CC1c1ccc(C)cc1 (stereo unspecified)
3.12 (≈ 8.5 µM)	12.5 (≈ 34 µM)	25 (≈ 68 µM)	12.5 (≈ 34 µM)	25 (≈ 68 µM)	12.5 (≈ 34 µM)	CC(=O)N1N=C(c2ccc(Cl)c(Cl)c2)CC1c1ccccc1Cl (stereo unspecified)
6.25 (≈ 18.8 µM)	12.5 (≈ 37.5 µM)	> 50	12.5 (≈ 37.5 µM)	25 (≈ 75 µM)	25 (≈ 75 µM)	CC(=O)N1N=C(c2ccc(Cl)c(Cl)c2)CC1c1ccccc1 (stereo unspecified)
12.5 (≈ 31.8 µM)	50 (≈ 127 µM)	25 (≈ 63.6 µM)	> 50	12.5 (≈ 31.8 µM)	12.5 (≈ 31.8 µM)	COc1cc(OC)cc(C2CC(c3ccc(Cl)c(Cl)c3)=NN2C(C)=O)c1 (stereo unspecified)
25 (≈ 80.5 µM)	12.5 (≈ 40.3 µM)	1.56 (≈ 5.03 µM)	25 (≈ 80.5 µM)	12.5 (≈ 40.3 µM)	6.25 (≈ 20.1 µM)	CC(=O)N1N=C(c2ccc(C)c(C)c2)CC1c1ccc(F)cc1 (stereo unspecified)
> 50	50 (≈ 153 µM)	1.56 (≈ 4.78 µM)	12.5 (≈ 38.2 µM)	6.25 (≈ 19.1 µM)	6.25 (≈ 19.1 µM)	CC(=O)N1N=C(c2ccc(C)c(C)c2)CC1c1ccc(Cl)cc1 (stereo unspecified)
25 (≈ 67.3 µM)	50 (≈ 135 µM)	12.6 (≈ 33.9 µM)	25 (≈ 67.3 µM)	3.12 (≈ 8.42 µM)	12.5 (≈ 33.7 µM)	CC(=O)N1N=C(c2ccc(C)c(C)c2)CC1c1ccc(Br)cc1 (stereo unspecified)
0.78 (≈ 2.12 µM)	6.25 (≈ 17 µM)	25 (≈ 68 µM)	25 (≈ 68 µM)	> 50	25 (≈ 68 µM)	CC(=O)N1N=C(c2ccc(Cl)c(Cl)c2)CC1c1ccc(Cl)cc1 (stereo unspecified)
1.56 (≈ 4.45 µM)	1.56 (≈ 4.45 µM)	12.5 (≈ 35.6 µM)	12.5 (≈ 35.6 µM)	12.5 (≈ 35.6 µM)	12.5 (≈ 35.6 µM)	CC(=O)N1N=C(c2ccc(Cl)c(Cl)c2)CC1c1ccc(F)cc1 (stereo unspecified)
3.12 (≈ 8.6 µM)	6.25 (≈ 17.2 µM)	25 (≈ 68.8 µM)	> 50	25 (≈ 68.8 µM)	12.5 (≈ 34.4 µM)	COc1ccc(C2CC(c3ccc(Cl)c(Cl)c3)=NN2C(C)=O)cc1 (stereo unspecified)
1.56 (≈ 3.79 µM)	3.12 (≈ 7.58 µM)	> 50	12.5 (≈ 30.3 µM)	12.5 (≈ 30.3 µM)	25 (≈ 60.7 µM)	CC(=O)N1N=C(c2ccc(Cl)c(Cl)c2)CC1c1ccc(Br)cc1 (stereo unspecified)
6.25 (≈ 18.3 µM)	12.5 (≈ 36.5 µM)	25 (≈ 73 µM)	12.5 (≈ 36.5 µM)	> 50	12.5 (≈ 36.5 µM)	COc1cc(OC)cc(C2CC(c3ccccc3F)=NN2C(C)=O)c1 (stereo unspecified)
12.5 (≈ 29.6 µM)	25 (≈ 59.2 µM)	3.12 (≈ 7.4 µM)	25 (≈ 59.2 µM)	25 (≈ 59.2 µM)	6.25 (≈ 14.8 µM)	CC(=O)N1N=C(c2ccc(Br)cc2)CC1c1ccc(Br)cc1 (stereo unspecified)
25 (≈ 70 µM)	50 (≈ 140 µM)	6.25 (≈ 17.5 µM)	25 (≈ 70 µM)	6.25 (≈ 17.5 µM)	1.56 (≈ 4.37 µM)	CC(=O)N1N=C(c2ccc(Br)cc2)CC1c1ccc(C)cc1 (stereo unspecified)
25 (≈ 67 µM)	6.25 (≈ 16.7 µM)	12.5 (≈ 33.5 µM)	50 (≈ 134 µM)	3.12 (≈ 8.37 µM)	1.56 (≈ 4.18 µM)	COc1ccc(C2CC(c3ccc(Br)cc3)=NN2C(C)=O)cc1 (stereo unspecified)
25 (≈ 66.2 µM)	50 (≈ 132 µM)	25 (≈ 66.2 µM)	12.5 (≈ 33.1 µM)	3.12 (≈ 8.27 µM)	6.25 (≈ 16.5 µM)	CC(=O)N1N=C(c2ccc(Br)cc2)CC1c1ccccc1Cl (stereo unspecified)
50 (≈ 146 µM)	25 (≈ 72.8 µM)	6.25 (≈ 18.2 µM)	12.5 (≈ 36.4 µM)	> 50	12.5 (≈ 36.4 µM)	CC(=O)N1N=C(c2ccc(Br)cc2)CC1c1ccccc1 (stereo unspecified)
50 (≈ 124 µM)	25 (≈ 62 µM)	6.25 (≈ 15.5 µM)	50 (≈ 124 µM)	12.5 (≈ 31 µM)	3.12 (≈ 7.75 µM)	COc1cc(OC)cc(C2CC(c3ccc(Br)cc3)=NN2C(C)=O)c1 (stereo unspecified)

MIC [1] [µg/mL]	MIC [2] [µg/mL]	MIC [3] [µg/mL]	MIC [4] [µg/mL]	MIC [5] [µg/mL]	MIC [6] [µg/mL]	Compound
25 (≈ 83.2 µM)	50 (≈ 166 µM)	> 50	50 (≈ 166 µM)	> 50	12.5 (≈ 41.6 µM)	CC(=O)N1N=C(c2ccccc2F)CC1c1ccc(F)cc1 (stereo unspecified)
12.5 (≈ 39.5 µM)	12.5 (≈ 39.5 µM)	> 50	25 (≈ 78.9 µM)	> 50	12.5 (≈ 39.5 µM)	CC(=O)N1N=C(c2ccccc2F)CC1c1ccc(Cl)cc1 (stereo unspecified)
25 (≈ 69.2 µM)	25 (≈ 69.2 µM)	25 (≈ 69.2 µM)	25 (≈ 69.2 µM)	12.5 (≈ 34.6 µM)	12.5 (≈ 34.6 µM)	CC(=O)N1N=C(c2ccccc2F)CC1c1ccc(Br)cc1 (stereo unspecified)
25 (≈ 84.4 µM)	25 (≈ 84.4 µM)	> 50	25 (≈ 84.4 µM)	12.5 (≈ 42.2 µM)	> 50	CC(=O)N1N=C(c2ccccc2F)CC1c1ccc(C)cc1 (stereo unspecified)
6.25 (≈ 20 µM)	12.5 (≈ 40 µM)	25 (≈ 80 µM)	12.5 (≈ 40 µM)	25 (≈ 80 µM)	25 (≈ 80 µM)	COc1ccc(C2CC(c3ccccc3F)=NN2C(C)=O)cc1 (stereo unspecified)
6.25 (≈ 19.7 µM)	25 (≈ 78.9 µM)	12.5 (≈ 39.5 µM)	12.5 (≈ 39.5 µM)	12.5 (≈ 39.5 µM)	12.5 (≈ 39.5 µM)	CC(=O)N1N=C(c2ccccc2F)CC1c1ccccc1Cl (stereo unspecified)
12.5 (≈ 39.5 µM)	1.56 (≈ 4.93 µM)	12.5 (≈ 39.5 µM)	25 (≈ 78.9 µM)	25 (≈ 78.9 µM)	12.5 (≈ 39.5 µM)	CC(=O)N1N=C(c2ccc(Cl)cc2)CC1c1ccc(F)cc1 (stereo unspecified)
12.5 (≈ 37.5 µM)	6.25 (≈ 18.8 µM)	25 (≈ 75 µM)	12.5 (≈ 37.5 µM)	25 (≈ 75 µM)	6.25 (≈ 18.8 µM)	CC(=O)N1N=C(c2ccc(Cl)cc2)CC1c1ccc(Cl)cc1 (stereo unspecified)
6.25 (≈ 16.5 µM)	6.25 (≈ 16.5 µM)	25 (≈ 66.2 µM)	12.5 (≈ 33.1 µM)	> 50	> 50	CC(=O)N1N=C(c2ccc(Cl)cc2)CC1c1ccc(Br)cc1 (stereo unspecified)
6.25 (≈ 20 µM)	25 (≈ 79.9 µM)	12.5 (≈ 40 µM)	12.5 (≈ 40 µM)	12.5 (≈ 40 µM)	12.5 (≈ 40 µM)	CC(=O)N1N=C(c2ccc(Cl)cc2)CC1c1ccc(C)cc1 (stereo unspecified)
12.5 (≈ 38 µM)	25 (≈ 76 µM)	> 50	25 (≈ 76 µM)	> 50	25 (≈ 76 µM)	COc1ccc(C2CC(c3ccc(Cl)cc3)=NN2C(C)=O)cc1 (stereo unspecified)
6.25 (≈ 18.8 µM)	50 (≈ 150 µM)	25 (≈ 75 µM)	12.5 (≈ 37.5 µM)	12.5 (≈ 37.5 µM)	12.5 (≈ 37.5 µM)	CC(=O)N1N=C(c2ccc(Cl)cc2)CC1c1ccccc1Cl (stereo unspecified)
6.25 (≈ 17.4 µM)	50 (≈ 139 µM)	6.25 (≈ 17.4 µM)	12.5 (≈ 34.8 µM)	> 50	25 (≈ 69.7 µM)	COc1cc(OC)cc(C2CC(c3ccc(Cl)cc3)=NN2C(C)=O)c1 (stereo unspecified)
6.25 (≈ 17.6 µM)	50 (≈ 141 µM)	12.5 (≈ 35.3 µM)	12.5 (≈ 35.3 µM)	6.25 (≈ 17.6 µM)	12.5 (≈ 35.3 µM)	COc1ccc(C2=NN(C(C)=O)C(c3cc(OC)cc(OC)c3)C2)cc1 (stereo unspecified)
25 (≈ 69.2 µM)	1.56 (≈ 4.32 µM)	1.56 (≈ 4.32 µM)	12.5 (≈ 34.6 µM)	12.5 (≈ 34.6 µM)	3.12 (≈ 8.65 µM)	CC(=O)N1N=C(c2ccc(Br)cc2)CC1c1ccc(F)cc1 (stereo unspecified)
25 (≈ 66.2 µM)	6.25 (≈ 16.5 µM)	3.12 (≈ 8.27 µM)	25 (≈ 66.2 µM)	12.5 (≈ 33.1 µM)	3.12 (≈ 8.27 µM)	CC(=O)N1N=C(c2ccc(Br)cc2)CC1c1ccc(Cl)cc1 (stereo unspecified)
12.5 (≈ 44.3 µM)	25 (≈ 88.6 µM)	25 (≈ 88.6 µM)	> 50	> 50	25 (≈ 88.6 µM)	CC(=O)N1N=C(c2ccccc2F)CC1c1ccccc1 (stereo unspecified)
12.5 (≈ 41.8 µM)	25 (≈ 83.7 µM)	> 50	25 (≈ 83.7 µM)	12.5 (≈ 41.8 µM)	> 50	CC(=O)N1N=C(c2ccc(Cl)cc2)CC1c1ccccc1 (stereo unspecified)
